In paper PMC3160846 (PLoS ONE, 2011):
“And” between values parts separate entries of the source, which are not always exact repeats. Identical values can stand only once.

Tests used:
cMET = molecular target: T1, cMET (Homo sapiens, UniProt P08581); assay: Kinase inhibition assay, cMET; type: biochemical
T1 construct: GST-tagged c-Met (residues K956-S1390) containing kinase domain; GST; made in house; host or cells: Sf9 insect cells
Procedure: c-Met – The recombinant GST-tagged c-Met (residues K956-S1390) containing kinase domain was expressed in Sf9 insect cells. The kinase assay was carried out in 96-well plates with the tested compound at 30°C for 120 min.
Composition of the reaction buffers used in different kinase inhibitory assays is described in Figure S3.
25 mM HEPES pH 7.4, 10mM MgCl2, 4 mM MnCl2, 0.5mM Na3VO4, 2 mM DTT, 0.02% Triton X100, 0.01% BSA, 1 mM ATP, 2 mM polyGlu4:Tyr peptide, 75 ng recombinant Met.

NTUB1 cells = assay: Clonogenic assay, NTUB1; type: cell-based, Human; conditions: Homo sapiens; NTUB1, bladder, MDR1 negative (parental); read-out: IC50, anti-proliferative activity
Procedure: (§1) Human lung adenocarcinoma A549 cells and NTUB1 bladder cancer cells were maintained in RPMI supplied with 10% fetal bovine serum. […] KB-derived MRP1-expressing cell line, KB-7D, was maintained in growth medium supplemented with 7 µM VP-16.
(§2) Two hundred cells in logarithmic growth phase were seeded in a 6-well plate. The cells were exposed to various concentrations of the test drugs for a three-generation period. At the end of the incubation period, cells were fixed and stained with 50% ethanol containing 0.5% methylene blue for 30 min. The plates were washed five times with water and allowed to air-dry. Colonies were countered manually. […] Each value represents the average of at least three independent experiments run in triplicates.

KB-S15 cells = assay: Clonogenic assay, KB-S15; type: cell-based, Human
Procedure: as §1, §2

KB-7D cells = assay: Clonogenic assay, KB-7D; type: cell-based; conditions: Homo sapiens, KB7D, VP-16 resistant, MRP1 ↑, read-out: IC50, anti-proliferative activity
Procedure: as §1, with “serum. KB-derived MDR1-expressing cell lines (i.e. KB-VIN10 and KB-S15) and NTUB1-dervided MDR1-expressing cell line (i.e. NTU0.017) were maintained in growth medium supplemented with 10 nM vincristine, 15 nM and 17 nM paclitaxel respectively.” for “serum.”
Two hundred cells in logarithmic growth phase were seeded in a 6-well plate. The cells were exposed to various concentrations of the test drugs for a three-generation period. At the end of the incubation period, cells were fixed and stained with 50% ethanol containing 0.5% methylene blue for 30 min. The plates were washed five times with water and allowed to air-dry. Colonies were countered manually. The IC50 value resulting from 50% inhibition of cell growth was calculated graphically as a comparison with the growth of the control group. Each value represents the average of at least three independent experiments run in triplicates.

HONE-1 cells = assay: Caspase-3/-7 activity imaging, HONE-1; type: cell-based, Human; conditions: HONE-1, 60 h
Procedure: Caspase-3/-7 activity was analyzed with the MagicRed™ DEVD real-time caspase activity detection kit (catalog number #935, Immunochemistry Technologies LLC, Bloomington, MN). Briefly, cells were cultured in chamber-slides and incubated with test agents for various durations. Cells were then incubated with the Caspase-3/-7 substrate MR-(DEVD2) in culture medium for 1 hour, and then co-incubated with Hoechst 33342 for 15 min. Cells were viewed with a UV-enabled inverted-microscope at an excitation wavelength of 540 nm–560 nm and emission at 610 nm. Experiments were repeated independently at least two times.

[1] = Pharmacokinetic study in rats; type: in vivo; conditions: 5 mg/kg i.v.
Procedure: Male Sprague-Dawley rats weighing 300–400 g each (8–12 weeks old) were obtained from BioLASCO, Taiwan Co., Ltd., Ilan, Taiwan. Animals were surgically prepared with a jugular-vein cannula one day prior to dosing and fasted overnight (∼18–20 h) prior to dosing. Water was available ad libitum throughout the experiment. Single 5 mg/kg dose of BPR1K653, as a DMA/PEG (20/80, v/v) solution, was separately administered to groups of 3 rats each intravenously by a bolus injection via the jugular-vein cannula. At 0 (prior to dosing), 2, 5, 15 and 30 min, and at 1, 2, 4, 6, 8 and 24 h after dosing, a blood sample (0.15 mL) was collected from each animal via the jugular-vein cannula and stored in ice (0–4°C). Plasma was separated from the blood by centrifugation (14,000 g for 15 min at 4°C in a Beckman Model Allegra™ 6R centrifuge) and stored in a freezer (−20°C). All samples were analyzed for the parent drug by LC-MS/MS. LC/MS/MS conditions: The chromatographic system consisted of an Agilent 1200 series LC system and an Agilent ZORBAX Eclipse XDB-C8 column (5 µm, 3.0×150 mm) was connected to a MDS Sciex API3000 tandem mass spectrometer, which was equipped with a Turbo V™ ESI in the positive scanning mode at 600°C. Data was acquired via the multiple reactions monitoring (MRM) system. The MS/MS ion transitions were monitored at m/z of 541.4/106.4 for BPR1K653. The collision energy of 58.0 V was used for the analyst, BPR1K653. A gradient HPLC method was employed for the separation. Mobile phase A consisted of water containing 0.1% formic acid, and mobile phase B consisted of acetonitrile. The gradient profile was shown as follows (min/%B): 0.0–1.2/5, 1.3–3.9/95, 4.0–5.0/5. The flow rate was set to be 1.5 mL/min. The auto-sampler was programmed to inject 15 µL sample aliquots in every 5 min. The retention time of BPR1K653 was 2.39 min. Plasma concentration data were analyzed with non-compartmental method.

KB cells = assay: Autophagy (LC3 conversion, Western blot), KB; type: cell-based, Human; conditions: 48 h or 72 h, full serum
Procedure: KB cells were treated with either DMSO (negative control) or BPR1K653 (48 h or 72 h) under full serum conditions. Cells cultured drug-free under reduced serum conditions were used as a positive control. Expression of various proteins was determined by Western blotting. The level of conversion of LC3-I to LC3-II provides an indicator of autophagic activity. (TIF) Click here for additional data file.

T1 sequence (P08581 956-1390): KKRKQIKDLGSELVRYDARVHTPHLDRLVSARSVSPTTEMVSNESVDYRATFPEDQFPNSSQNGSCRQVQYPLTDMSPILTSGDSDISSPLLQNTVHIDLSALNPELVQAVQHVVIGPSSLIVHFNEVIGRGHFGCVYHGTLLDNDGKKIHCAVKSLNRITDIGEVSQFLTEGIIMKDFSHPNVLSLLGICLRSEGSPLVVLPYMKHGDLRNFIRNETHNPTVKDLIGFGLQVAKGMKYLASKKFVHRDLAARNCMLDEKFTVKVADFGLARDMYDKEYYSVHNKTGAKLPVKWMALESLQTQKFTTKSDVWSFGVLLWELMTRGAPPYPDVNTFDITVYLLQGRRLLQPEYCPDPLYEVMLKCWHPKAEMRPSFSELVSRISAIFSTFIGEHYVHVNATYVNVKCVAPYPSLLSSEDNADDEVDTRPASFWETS

- IC50 (cMET): > 10000 nM
- IC50 (KB-S15 cells; Homo sapiens, KB-S15, paclitaxol resistant, MDR1 ↑, read-out: IC50, anti-proliferative activity): 11 ± 4 nM
- IC50 (KB-7D cells): 19 nM
- maximum plasma concentration above the in vitro kinase inhibition IC50 of Aurora-A [1]: more than 80 fold
- maximum plasma concentration above the in vitro kinase inhibition IC50 of Aurora-B [1]: > 200 fold
- maximum plasma concentration ([1]; at 2 min after dosing, 5 mg/kg): 10 µM and 5463 ng/mL
- AUC(0-inf) ([1]; male, Sprague-Dawley, rat, plasma, iv, read-out: Area under the curve (AUC(0-inf))): 1750 ng·h/mL
- half-life ([1]; male, Sprague-Dawley, rat, plasma, iv, read-out: Plasma half life (t1/2) (converted)): 3.9 h
- clearance ([1]; male, Sprague-Dawley, rat, plasma, iv, read-out: Total body clearance (CL)): 49.3 mL/min/kg
- Vd ([1]; male, Sprague-Dawley, rat, plasma, iv, read-out: Volume of distribution at the steady state (Vss)): 10.6 ± 5.1 L/kg
- concentration at 24 h ([1]; male, Sprague-Dawley, rat, plasma, iv, 5 mg/kg, read-out: estimated plasma concentration 24 h after dosing): 3.9 nM and 2.1 ng/mL
Compound: CN(C)Cc1ccccc1NC(=O)Nc1ccc(CCNc2ncnc3oc(-c4ccccc4)c(Cl)c23)cc1 [BPR1K653]
- IC50 (NTUB1 cells): 8 ± 4 nM
- Fold difference as compare to the IC50 in the respective parental cells (KB-S15 cells; KB-S15 vs KB): 1 fold
- apoptosis, caspase-3/-7 activity (HONE-1 cells): induced apoptosis
- induction of autophagy (KB cells): not autophagy
